Measurements from PMC10507085, “Pharmacological inhibition of TBK1/IKKε blunts immunopathology in a murine model of SARS-CoV-2 infection” (Nature Communications, 2023).

Columns and labels:
Assay in all cases: biochemical
Design in all cases: KINOMEscan competition binding, DNA-tagged kinase against immobilised ligand, qPCR read-out
[1] = biological target: T1, RSK4(Kin.Dom.2-C-terminal) (Homo sapiens, UniProt Q9UK32); conditions: read-out: Percent Control
T1 construct: gene RPS6KA6; Kin.Dom.2 C-terminal

[2] = biological target: HIPK3 (Homo sapiens, UniProt Q9H422); conditions: read-out: Percent Control
[3] = biological target: PDPK1 (Homo sapiens, UniProt O15530); conditions: read-out: Percent Control
[4] = biological target: EGFR (Homo sapiens, UniProt P00533); conditions: read-out: Percent Control
[5] = biological target: STK32B (Homo sapiens, UniProt Q9NY57); conditions: read-out: Percent Control
[6] = biological target: T2, PAK7 (Homo sapiens, UniProt Q9P286); conditions: read-out: Percent Control
T2 construct: gene PAK5

[7] = biological target: HIPK2 (Homo sapiens, UniProt Q9H2X6); conditions: read-out: Percent Control
[8] = biological target: STK35 (Homo sapiens, UniProt Q8TDR2); conditions: read-out: Percent Control
[9] = biological target: CDC42BPA (Homo sapiens, UniProt Q5VT25); conditions: read-out: Percent Control
[10] = biological target: PIK3CA (Homo sapiens, UniProt P42336); conditions: read-out: Percent Control
[11] = biological target: DCLK1 (Homo sapiens, UniProt O15075); conditions: read-out: Percent Control
[12] = biological target: MAP3K19 (Homo sapiens, UniProt Q56UN5)
How it was run: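 KINOMEscan active-site competition; DNA-tagged kinase vs immobilised ligand; bound kinase by RT-qPCR. 11-pt 3-fold serial dilution, 100× stocks in 100% DMSO, 1× in assay.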

[13] = biological target: MAP3K15 (Homo sapiens, UniProt Q6ZN16); conditions: read-out: Percent Control
[14] = biological target: AKT3 (Homo sapiens, UniProt Q9Y243); conditions: read-out: Percent Control
[15] = biological target: ROCK2 (Homo sapiens, UniProt O75116); conditions: read-out: Percent Control
[16] = biological target: DAPK3 (Homo sapiens, UniProt O43293); conditions: read-out: Percent Control
[17] = biological target: T3, RSK4(Kin.Dom.1-N-terminal) (Homo sapiens, UniProt Q9UK32); conditions: read-out: Percent Control
T3 construct: gene RPS6KA6; Kin.Dom.1 N-terminal

[18] = biological target: BRAF (Homo sapiens, UniProt P15056); conditions: read-out: Percent Control
[19] = biological target: MARK3 (Homo sapiens, UniProt P27448); conditions: read-out: Percent Control

Sequence of MAP3K19 (Q56UN5 whole entry): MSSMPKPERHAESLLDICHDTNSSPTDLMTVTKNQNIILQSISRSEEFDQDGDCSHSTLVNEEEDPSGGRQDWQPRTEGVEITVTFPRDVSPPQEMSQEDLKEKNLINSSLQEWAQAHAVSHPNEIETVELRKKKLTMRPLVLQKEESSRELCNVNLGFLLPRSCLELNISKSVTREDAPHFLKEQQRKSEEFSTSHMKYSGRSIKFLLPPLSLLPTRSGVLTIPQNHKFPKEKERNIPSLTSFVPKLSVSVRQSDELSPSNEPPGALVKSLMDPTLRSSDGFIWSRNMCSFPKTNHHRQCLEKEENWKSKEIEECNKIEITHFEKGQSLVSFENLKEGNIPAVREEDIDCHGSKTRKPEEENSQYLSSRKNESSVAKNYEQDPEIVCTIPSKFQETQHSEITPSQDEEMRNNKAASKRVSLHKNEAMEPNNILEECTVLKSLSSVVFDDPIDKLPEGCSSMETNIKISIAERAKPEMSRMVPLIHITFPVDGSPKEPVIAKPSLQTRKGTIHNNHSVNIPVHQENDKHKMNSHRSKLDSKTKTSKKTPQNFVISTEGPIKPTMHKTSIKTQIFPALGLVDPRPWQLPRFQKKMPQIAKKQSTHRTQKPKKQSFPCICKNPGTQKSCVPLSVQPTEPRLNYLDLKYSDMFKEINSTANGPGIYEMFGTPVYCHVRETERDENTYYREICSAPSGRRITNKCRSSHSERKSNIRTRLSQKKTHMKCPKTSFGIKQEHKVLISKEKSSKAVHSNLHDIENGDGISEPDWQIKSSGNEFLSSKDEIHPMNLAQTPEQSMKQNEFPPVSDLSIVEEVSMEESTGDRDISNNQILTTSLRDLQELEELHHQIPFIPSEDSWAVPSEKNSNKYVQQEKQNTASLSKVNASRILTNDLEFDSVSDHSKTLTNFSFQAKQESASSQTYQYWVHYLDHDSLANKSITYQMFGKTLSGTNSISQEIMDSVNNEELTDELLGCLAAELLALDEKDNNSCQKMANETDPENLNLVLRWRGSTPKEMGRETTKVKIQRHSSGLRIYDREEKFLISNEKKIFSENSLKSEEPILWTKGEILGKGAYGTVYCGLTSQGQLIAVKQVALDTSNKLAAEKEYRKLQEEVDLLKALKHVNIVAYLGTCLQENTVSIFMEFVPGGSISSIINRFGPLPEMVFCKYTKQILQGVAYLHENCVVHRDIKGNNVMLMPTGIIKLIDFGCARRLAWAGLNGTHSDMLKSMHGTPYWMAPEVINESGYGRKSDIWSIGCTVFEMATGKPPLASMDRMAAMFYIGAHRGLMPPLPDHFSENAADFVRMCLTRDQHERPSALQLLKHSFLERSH
Sequence of DCLK1 (O15075 whole entry): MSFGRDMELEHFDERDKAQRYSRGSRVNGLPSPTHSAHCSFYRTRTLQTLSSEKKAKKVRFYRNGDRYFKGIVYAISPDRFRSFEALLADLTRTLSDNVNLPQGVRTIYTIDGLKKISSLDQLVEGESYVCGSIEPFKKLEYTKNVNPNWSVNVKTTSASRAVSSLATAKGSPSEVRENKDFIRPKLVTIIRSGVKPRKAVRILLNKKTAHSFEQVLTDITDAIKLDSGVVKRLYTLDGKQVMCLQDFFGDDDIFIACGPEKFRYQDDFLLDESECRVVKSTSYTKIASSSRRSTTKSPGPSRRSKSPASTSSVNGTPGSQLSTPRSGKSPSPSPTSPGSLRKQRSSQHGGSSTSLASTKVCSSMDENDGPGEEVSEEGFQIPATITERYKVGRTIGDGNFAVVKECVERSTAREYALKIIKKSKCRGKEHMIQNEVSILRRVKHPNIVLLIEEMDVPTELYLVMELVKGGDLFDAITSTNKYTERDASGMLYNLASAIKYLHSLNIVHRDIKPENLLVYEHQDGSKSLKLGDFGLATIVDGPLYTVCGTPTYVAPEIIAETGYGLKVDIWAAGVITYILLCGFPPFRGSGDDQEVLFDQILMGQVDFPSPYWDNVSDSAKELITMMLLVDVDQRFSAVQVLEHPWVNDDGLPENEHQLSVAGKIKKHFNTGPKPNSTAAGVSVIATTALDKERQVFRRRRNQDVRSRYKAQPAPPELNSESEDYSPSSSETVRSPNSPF
Sequence of MAP3K15 (Q6ZN16 whole entry): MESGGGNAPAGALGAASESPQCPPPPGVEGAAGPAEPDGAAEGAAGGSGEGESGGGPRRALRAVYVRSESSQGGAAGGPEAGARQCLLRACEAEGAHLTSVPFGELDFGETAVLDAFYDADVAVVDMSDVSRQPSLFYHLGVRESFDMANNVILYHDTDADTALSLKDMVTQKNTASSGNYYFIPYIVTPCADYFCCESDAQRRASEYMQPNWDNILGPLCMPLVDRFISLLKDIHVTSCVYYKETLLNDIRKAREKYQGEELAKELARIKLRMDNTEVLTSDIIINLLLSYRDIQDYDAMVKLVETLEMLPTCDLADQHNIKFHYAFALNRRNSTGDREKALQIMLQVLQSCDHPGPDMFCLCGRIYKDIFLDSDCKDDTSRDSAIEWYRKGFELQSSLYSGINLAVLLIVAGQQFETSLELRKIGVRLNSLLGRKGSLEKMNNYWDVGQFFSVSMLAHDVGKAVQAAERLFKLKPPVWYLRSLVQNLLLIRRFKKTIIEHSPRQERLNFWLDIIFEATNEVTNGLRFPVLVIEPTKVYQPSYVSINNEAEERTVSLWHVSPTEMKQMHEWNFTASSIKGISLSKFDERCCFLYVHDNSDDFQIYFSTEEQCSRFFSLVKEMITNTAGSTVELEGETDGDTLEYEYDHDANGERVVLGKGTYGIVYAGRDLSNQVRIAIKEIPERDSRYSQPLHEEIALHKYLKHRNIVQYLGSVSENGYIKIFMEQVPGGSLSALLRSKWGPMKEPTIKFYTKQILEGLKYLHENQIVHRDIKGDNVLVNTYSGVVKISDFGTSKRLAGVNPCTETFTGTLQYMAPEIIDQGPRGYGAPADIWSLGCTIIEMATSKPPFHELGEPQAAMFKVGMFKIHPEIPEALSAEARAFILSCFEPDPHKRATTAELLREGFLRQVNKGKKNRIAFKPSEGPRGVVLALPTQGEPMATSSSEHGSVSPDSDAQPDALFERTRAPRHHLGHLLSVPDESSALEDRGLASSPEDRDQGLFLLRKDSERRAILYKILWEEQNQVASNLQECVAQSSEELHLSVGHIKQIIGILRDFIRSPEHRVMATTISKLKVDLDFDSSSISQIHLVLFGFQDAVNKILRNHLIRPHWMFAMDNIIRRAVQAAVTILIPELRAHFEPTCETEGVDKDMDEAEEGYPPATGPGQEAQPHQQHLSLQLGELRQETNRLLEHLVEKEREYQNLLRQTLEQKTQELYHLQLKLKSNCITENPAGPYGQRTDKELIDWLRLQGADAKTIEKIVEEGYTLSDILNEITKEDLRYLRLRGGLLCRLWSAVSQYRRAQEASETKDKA
Sequence of STK35 (Q8TDR2 whole entry): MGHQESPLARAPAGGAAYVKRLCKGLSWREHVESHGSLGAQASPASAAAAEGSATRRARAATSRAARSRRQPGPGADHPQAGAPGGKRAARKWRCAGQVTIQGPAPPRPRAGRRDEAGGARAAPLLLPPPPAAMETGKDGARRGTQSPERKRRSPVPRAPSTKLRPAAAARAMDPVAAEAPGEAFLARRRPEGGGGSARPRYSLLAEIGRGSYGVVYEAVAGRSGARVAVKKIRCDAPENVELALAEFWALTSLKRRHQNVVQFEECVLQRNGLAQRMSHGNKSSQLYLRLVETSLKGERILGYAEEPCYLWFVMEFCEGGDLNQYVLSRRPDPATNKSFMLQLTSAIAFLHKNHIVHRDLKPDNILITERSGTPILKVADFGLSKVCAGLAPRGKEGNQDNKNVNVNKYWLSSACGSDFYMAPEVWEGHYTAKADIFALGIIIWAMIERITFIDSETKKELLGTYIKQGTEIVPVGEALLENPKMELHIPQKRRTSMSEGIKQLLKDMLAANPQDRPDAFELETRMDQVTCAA
Sequence of PIK3CA (P42336 whole entry): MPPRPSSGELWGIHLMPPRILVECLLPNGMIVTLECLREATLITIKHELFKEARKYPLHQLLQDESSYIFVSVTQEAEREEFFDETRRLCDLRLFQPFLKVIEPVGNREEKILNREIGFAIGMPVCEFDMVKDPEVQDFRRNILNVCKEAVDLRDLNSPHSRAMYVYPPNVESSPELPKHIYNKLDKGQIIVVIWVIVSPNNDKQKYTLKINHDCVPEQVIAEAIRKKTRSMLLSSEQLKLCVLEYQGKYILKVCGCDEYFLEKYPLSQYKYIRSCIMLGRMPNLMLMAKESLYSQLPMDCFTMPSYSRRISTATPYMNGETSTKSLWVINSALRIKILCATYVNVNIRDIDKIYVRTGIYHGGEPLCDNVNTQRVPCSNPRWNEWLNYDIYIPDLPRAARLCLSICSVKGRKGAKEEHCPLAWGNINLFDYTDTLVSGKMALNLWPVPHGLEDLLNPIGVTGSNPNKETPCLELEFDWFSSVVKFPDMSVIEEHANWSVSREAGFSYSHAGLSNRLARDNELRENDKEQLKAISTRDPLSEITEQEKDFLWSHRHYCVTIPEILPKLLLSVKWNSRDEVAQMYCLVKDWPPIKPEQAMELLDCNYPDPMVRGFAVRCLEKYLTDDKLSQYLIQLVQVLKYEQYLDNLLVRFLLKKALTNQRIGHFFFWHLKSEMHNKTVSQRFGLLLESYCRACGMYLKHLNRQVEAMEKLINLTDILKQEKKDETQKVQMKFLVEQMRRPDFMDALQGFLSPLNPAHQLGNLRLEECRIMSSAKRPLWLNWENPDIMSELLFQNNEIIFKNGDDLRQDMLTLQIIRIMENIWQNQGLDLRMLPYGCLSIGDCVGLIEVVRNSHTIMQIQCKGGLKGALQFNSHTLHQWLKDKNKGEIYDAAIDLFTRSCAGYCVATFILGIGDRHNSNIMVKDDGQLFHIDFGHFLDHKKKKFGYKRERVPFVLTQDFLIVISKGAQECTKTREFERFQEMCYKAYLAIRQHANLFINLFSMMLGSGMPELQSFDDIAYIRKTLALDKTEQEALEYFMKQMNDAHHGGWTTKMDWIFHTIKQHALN

Oc1ccc(C2=Cc3ccc(O)cc3OC2)cc1 [compound 1, idronoxil]
remaining binding at 10 µM [1]: 76% | remaining binding at 10 µM [2]: 33% | remaining binding at 10 µM [3]: 79% | remaining binding at 10 µM [4]: 83% | remaining binding at 10 µM [5]: 100% | remaining binding at 10 µM [6]: 95% | remaining binding at 10 µM [7]: 47% | remaining binding at 10 µM [8]: 88% | remaining binding at 10 µM [9]: 98% | remaining binding at 10 µM [10]: 89% | remaining binding at 10 µM [11]: 100% | Kd [12]: 2200 nM | remaining binding at 10 µM ([12]; read-out: Percent Control): 12% | remaining binding at 10 µM [13]: 100% | remaining binding at 10 µM [14]: 84% | remaining binding at 10 µM [15]: 82% | remaining binding at 10 µM [16]: 49% | remaining binding at 10 µM [17]: 94% | remaining binding at 10 µM [18]: 76% | remaining binding at 10 µM [19]: 100%
